Measurements reported in US20150072968A1, “Treating Infections with Ceftolozane/Tazobactam in Subjects Having Impaired Renal Function” (Calixa Therapeutics, Inc., priority 2013, published 2015).
Where two headings read alike, the source gives them in different places.

Legend:
[1] = Population pharmacokinetic analysis of 10 clinical studies (Example 7); format: in vivo, human
Description: Base model development. […] Intrinsic covariates analyzed included body weight, age, gender, ethnicity, and baseline calculated CrCL). The CrCL was estimated using the Cockcroft-Gault formula: […] […] Final population PK model: evaluation and performance. […] Smaller shrinkage ≦0.2 indicates good individual estimates.

clinical = conditions: human, in vivo
Description: CXA-201 plasma concentrations from 6 subjects with ESRD following a single dose without HD and a second dose with HD were used to develop a pPK model (Phoenix NLME, Pharsight).

[2] = Phase 1 single dose PK of 750 mg ceftolozane/tazobactam in severe renal impairment and ESRD on hemodialysis (Example 8); format: in vivo, human; conditions: for AUC(0-t) / Cmax / half-life / Tmax / AUC(0-inf) / clearance / Vd: both sexes, human, plasma; for Cmax: read-out: Cmax, Mean (CV %); for half-life: read-out: t1/2, Mean (CV %) (converted); for Tmax: read-out: tmax, Median (minimum, maximum); for AUC(0-inf): read-out: AUC∞, Mean (CV %); for clearance: read-out: CL, Mean (CV %) (converted); for Vd: read-out: Vss, Mean (CV %)
Protocol: This was a Phase 1, multicenter, prospective, open-label study of 750 mg ceftolozane/tazobactam (as CXA-201) administered IV in male and female adult subjects with severe renal impairment (estimated CLCR<30 mL/min) and subjects with end-stage renal disease (ESRD) on hemodialysis (HD). The primary objective of the study was to determine the PK profile of ceftolozane/tazobactam in subjects with severe renal impairment and subjects with ESRD on HD and to determine the effect of HD on the clearance of ceftolozane/tazobactam.
Subjects with severe renal impairment received a single IV 1-hour infusion of 750 mg ceftolozane/tazobactam on Day 1. […] Subjects in this cohort received an IV dose of 750 mg ceftolozane/tazobactam as a 1 hour infusion immediately after their first HD session on Day 1 (postdialysis, approximately 72 hours prior to the next HD session) and a second dose of ceftolozane/tazobactam approximately 2 hours before their second HD session on Day 4 of the study. Infusion of ceftolozane/tazobactam was completed approximately 1 hour before the start of HD.
Subjects in both cohorts had urine (if not anuric) and plasma samples collected for determination of levels of ceftolozane, tazobactam and the M1 metabolite of tazobactam; subjects in the ESRD on HD cohort also had dialysate fluid samples collected for PK assessment. Plasma, urine, and dialysate levels of ceftolozane, tazobactam, and its metabolite M1 collected over a prespecified interval were determined by LC/MS/MS assay.
All subjects underwent hemodialysis for 3 to 4 hours using a high-flux membrane (either 1.4, 1.8, or 1.9 m^2) on Days 1, 4, and 6 as scheduled. Average blood flow rate was 264 to 600 mL/min and average dialysis flow rate was either 600 or 800 mL/min for all subjects with ESRD.

[3] = cited from earlier work
[4] = Pharmacokinetics of ceftolozane/tazobactam in healthy volunteers; format: in vivo, human; conditions: single 1.5 g intravenous dose of CXA-201, healthy male adults
[5] = cited from earlier work; remark: listed apart in the source
[6] = Phase I PK studies in subjects with varying degrees of renal function (Example 11); format: in vivo, human
Description: Male and female subjects, aged 18 to 79 years, with varying degrees of renal function were enrolled in two, prospective, open-label, phase I studies of intravenous ceftolozane/tazobactam. A total of 36 subjects were enrolled into cohorts based on degree of renal function: normal (n=11), mild impairment (n=6), moderate impairment (n=7), severe impairment (n=6), and ESRD on HD (n=6). To ensure subjects with ESRD were receiving effective HD, a target adequacy of HD calculated from the pre- and post-blood urea nitrogen ratios (Kt/V) of at least 1.2 for a minimum of 3 months prior to enrollment was required. Renal impairment groups were classified according to the 2010 U.S.

[7] = intravenous, 750 mg, ESRD on HD, second infusion Day 4, start of infusion to end of dialysis
[8] = iv, 750 mg, ESRD on HD, Day 1 IV infusion of 750 mg (non-hemodialysis phase)
[9] = iv, 750 mg, ESRD on HD, second IV infusion of 750 mg on Day 4 (during HD)
[10] = iv, 750 mg, severe renal impairment, single IV 1-hour infusion of 750 mg ceftolozane/tazobactam
[11] = moderate renal impairment, single 1,000 mg/500 mg dose
[12] = severe renal impairment, single 500 mg/250 mg dose

For `C[C@]1(Cn2ccnn2)[C@H](C(=O)O)N2C(=O)C[C@H]2S1(=O)=O` [Tazobactam], the “between-subject variability (BSV) of CL” value ([1]; final population PK model) was 50.2%, the “between-subject variability (BSV) of Vc” value ([1]; final population PK model) was 52.5% and the “inter-compartment clearance (CL2)” value ([1]; final population PK model) was 3.13 L/h. For the same compound, the “volume of distribution in the peripheral compartment (Vp)” value ([1]; final population PK model) was 4.29 L, the clearance ([1]; human, plasma, intravenous, final population PK model, read-out: CL, population estimate (converted)) was 300 mL/min and the “Vc, population estimate” value ([1]; subjects without infection) was 14.2 L. The Vd (clinical) was 11 L, the clearance (clinical) was 51.2 mL/min and the “increase of CL by HD” value (clinical) was 6.6 fold. The “increase of Vc by HD” value (clinical) was 1.5 fold, the AUC(0-t) ([2]; intravenous, 750 mg, ESRD on HD, second infusion Day 4, approximately 6 hours from start of infusion to end of dialysis, read-out: AUClast, Mean (CV %)) was 28800 ng·h/mL and the Cmax [2, 7] was 15700 ng/mL. The half-life [2, 7] was 58.8 min, the Tmax [2, 7] was 1 h and the AUC(0-t) ([2]; intravenous, 750 mg, subjects with ESRD, read-out: Exposure (AUC48h) After HD (Day 1), Median (Range)) was 107000 ng·h/mL. For the same compound, the AUC(0-t) ([2]; intravenous, 750 mg, subjects with ESRD, read-out: Exposure (AUC48h) During HD (Day 3), Median (Range)) was 37100 ng·h/mL, the AUC(0-inf) [2, 8] was 105000 ng·h/mL and the clearance [2, 8] was 50 mL/min. The Cmax [2, 8] was 21200 ng/mL, the Vd [2, 8] was 17 L and the half-life [2, 8] was 314 min. It also gave an AUC(0-t) ([2]; iv, 750 mg, ESRD on HD, Day 1 IV infusion of 750 mg (non-hemodialysis phase), through 48 hours, read-out: AUClast, Mean (CV %)) of 103000 ng·h/mL, a Cmax [2, 9] of 15600 ng/mL and a half-life [2, 9] of 312 min. For the same compound, the AUC(0-t) ([2]; iv, 750 mg, ESRD on HD, second IV infusion of 750 mg on Day 4 (during HD), through 44 hours, read-out: AUClast, Mean (CV %)) was 38400 ng·h/mL, the AUC(0-t) ([2]; iv, 750 mg, severe renal impairment, single IV 1-hour infusion of 750 mg ceftolozane/tazobactam, through 48 hours, read-out: AUClast, Mean (CV %)) was 50300 ng·h/mL and the Cmax [2, 10] was 15200 ng/mL. The AUC(0-inf) [2, 10] was 52400 ng·h/mL, the clearance [2, 10] was 85 mL/min and the Vd [2, 10] was 16.5 L. It also gave a half-life [2, 10] of 156 min, a Tmax ([2]; ESRD on HD, second IV infusion of 750 mg on Day 4 (during HD)) of 1 h and a removed by dialysis ([2]; subjects with ESRD on HD) of roughly 56%. For the same compound, the “AUC48h Ratio (Day 3:1), Median (Range)” value ([2]; subjects with ESRD, during HD vs after HD) was 0.44 (0.26 − 0.53), the “Percent Removed, Median (Range)” value ([2]; subjects with ESRD, hemodialysis) was 56 (47 − 74) Percent and the “terminal elimination half-life (t½β)” value ([3]; healthy volunteers) was roughly 1 h. For the same compound, the “Terminal elimination half-lives (t1/2)” value ([3]; patients with normal renal function) was roughly 1 h, the “excreted in the urine as the unchanged parent drug” value ([3]; remainder as inactive M1 metabolite) was 80% and the “excreted in the urine as unchanged parent drug” value [4] was “More than 80%”. The protein binding [5] was roughly 30%, the extraction ratio ([6]; 1 h after the start of HD) was 48% and the extraction ratio ([6]; 2 h after the start of HD) was 54%. For the same compound, the “median Cmax in plasma higher compared with normal renal function, dose normalized” value ([6]; ESRD during non-HD) was 2.4 fold, the “average extraction ratio during HD” value ([6]; ESRD on HD) was 53% and the “median RDHD (percent reduction in plasma concentration during HD)” value ([6]; ESRD on HD) was 95%. For the same compound, the “reduction in overall exposure based on the AUC0-∞ on and off HD” value ([6]; ESRD on HD) was roughly 56%, the “plasma concentration rebound peak following HD, of the original Cmax” value ([6]; ESRD, period following HD) was roughly 6% and the extraction ratio ([6]; at end of HD) was 55%. The clearance ([6]; both sexes, human, dialysate and plasma, intravenous, ESRD on HD, read-out: median dialysis clearance (CLD) (converted)) was 73.2 mL/min, the half-life ([6]; both sexes, human, plasma, intravenous, ESRD on HD, read-out: t1/2 during the HD period (converted)) was 54.6 min and the “increase of median AUC0-∞ compared with normal renal function” value [6, 11] was 2.2 fold. The “increase of median Cmax compared with normal renal function” value [6, 11] was 1.6 fold, the “increase of median AUC0-∞ compared with dose-normalized exposure in normal renal function” value [6, 12] was 3.8 fold and the “increase of median Cmax compared with dose-normalized exposure in normal renal function” value [6, 12] was 1.9 fold.
